Paper PMC4664558 (Clinical Pharmacology and Therapeutics, 2015)
“And” between values parts separate entries of the source, which are not always exact repeats. Equal values may be shown once. Read-outs that look alike come from different tables or passages of the source.

Legend:
OATP1B2 = target: T1, OATP1B2 (Rattus norvegicus, UniProt Q9QZX8); test: Inhibition of E217βDG active uptake in cryopreserved rat hepatocytes; conditions: for Predicted R value: OATP1B1/1B3-based DDI, 1 + [I]inlet,max/Ki, Ki approximated by IC50; for inhibition at 3 min, 100 μM: rat, cryopreserved rat hepatocytes, probe [3H] β-estradiol 17-β-D-glucuronide (E217βDG), 1 μM, 0.1 μCi
T1 sequence (Q9QZX8 1-687): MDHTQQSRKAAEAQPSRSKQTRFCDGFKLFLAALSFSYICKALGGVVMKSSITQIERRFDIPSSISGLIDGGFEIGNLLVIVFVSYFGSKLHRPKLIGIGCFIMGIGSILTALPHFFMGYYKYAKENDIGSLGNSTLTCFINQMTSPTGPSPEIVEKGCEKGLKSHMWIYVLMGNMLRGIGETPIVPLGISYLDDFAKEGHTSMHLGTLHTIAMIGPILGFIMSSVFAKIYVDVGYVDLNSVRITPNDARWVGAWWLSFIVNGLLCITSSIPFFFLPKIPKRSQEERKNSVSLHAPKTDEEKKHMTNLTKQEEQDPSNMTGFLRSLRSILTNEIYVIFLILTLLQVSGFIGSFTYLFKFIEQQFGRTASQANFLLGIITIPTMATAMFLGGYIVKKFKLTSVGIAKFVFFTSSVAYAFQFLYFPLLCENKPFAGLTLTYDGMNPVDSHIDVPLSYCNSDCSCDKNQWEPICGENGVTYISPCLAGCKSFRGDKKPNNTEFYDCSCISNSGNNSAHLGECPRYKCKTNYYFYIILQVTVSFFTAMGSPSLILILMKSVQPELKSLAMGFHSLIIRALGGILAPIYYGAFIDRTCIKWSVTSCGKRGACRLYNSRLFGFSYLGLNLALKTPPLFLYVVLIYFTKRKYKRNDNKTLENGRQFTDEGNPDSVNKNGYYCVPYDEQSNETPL

[1] = INPC cohort study: risk of myopathy after prescription of drug pairs; conditions: adjusted for age and sex; for Risk2 (myopathy risk for drug 2): drug 2 only
[2] = Peak plasma / gut / hepatic inlet concentration at the highest clinical dose; type: in vivo, human; conditions: for Maximal hepatic inlet concentration ([I]inlet,max): Cmax + (ka x Dose x FaFg/Qh); for Inhibitor concentration ([I]): [I] equal to Cmax
rat L6 myotubes = test: Myotoxicity in rat L6 myotubes; type: cell-based; conditions: 10 μM for 5 days, compared to DMSO control
[3] = peak total plasma concentration at the highest clinical dose; cited from earlier work
CYP2D6 [4] = target: T2, CYP2D6 (Homo sapiens, UniProt P10635); test: biochemical
T2 sequence (P10635 whole entry): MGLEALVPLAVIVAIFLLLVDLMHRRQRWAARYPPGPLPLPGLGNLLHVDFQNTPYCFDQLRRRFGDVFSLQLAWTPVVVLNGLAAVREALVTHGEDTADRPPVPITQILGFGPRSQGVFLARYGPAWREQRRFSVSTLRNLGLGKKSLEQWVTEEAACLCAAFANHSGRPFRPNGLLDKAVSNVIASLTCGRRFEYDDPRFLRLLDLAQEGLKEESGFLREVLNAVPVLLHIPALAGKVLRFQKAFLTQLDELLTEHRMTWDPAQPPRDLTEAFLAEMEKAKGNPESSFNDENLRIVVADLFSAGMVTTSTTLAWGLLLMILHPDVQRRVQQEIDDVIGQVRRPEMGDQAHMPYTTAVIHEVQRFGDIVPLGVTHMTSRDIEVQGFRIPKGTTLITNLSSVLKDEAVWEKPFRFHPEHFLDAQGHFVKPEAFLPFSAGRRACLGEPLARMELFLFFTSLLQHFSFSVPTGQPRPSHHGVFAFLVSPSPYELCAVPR

CYP2D6 [5] = target: T2, CYP2D6
CYP2C9 [6] = target: T3, CYP2C9 (Homo sapiens, UniProt P11712); test: biochemical; conditions: pathway CYP2C9
T3 sequence (P11712 whole entry): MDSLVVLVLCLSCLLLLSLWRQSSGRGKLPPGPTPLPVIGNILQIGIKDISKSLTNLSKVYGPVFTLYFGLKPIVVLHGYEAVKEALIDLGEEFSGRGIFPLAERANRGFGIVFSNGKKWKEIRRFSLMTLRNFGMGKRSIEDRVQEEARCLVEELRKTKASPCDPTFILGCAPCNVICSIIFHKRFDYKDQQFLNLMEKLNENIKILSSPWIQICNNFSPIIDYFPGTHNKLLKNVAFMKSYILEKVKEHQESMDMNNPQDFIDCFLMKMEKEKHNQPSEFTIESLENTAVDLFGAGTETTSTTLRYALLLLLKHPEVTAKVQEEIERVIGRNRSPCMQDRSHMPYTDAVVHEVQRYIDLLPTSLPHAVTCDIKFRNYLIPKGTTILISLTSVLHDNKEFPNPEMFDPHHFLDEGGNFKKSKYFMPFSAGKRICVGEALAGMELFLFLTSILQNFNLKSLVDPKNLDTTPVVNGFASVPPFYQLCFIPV

CYP3A4 = CYP3A4 (Homo sapiens, UniProt P08684)
Chain of CYP3A4 (P08684 whole entry): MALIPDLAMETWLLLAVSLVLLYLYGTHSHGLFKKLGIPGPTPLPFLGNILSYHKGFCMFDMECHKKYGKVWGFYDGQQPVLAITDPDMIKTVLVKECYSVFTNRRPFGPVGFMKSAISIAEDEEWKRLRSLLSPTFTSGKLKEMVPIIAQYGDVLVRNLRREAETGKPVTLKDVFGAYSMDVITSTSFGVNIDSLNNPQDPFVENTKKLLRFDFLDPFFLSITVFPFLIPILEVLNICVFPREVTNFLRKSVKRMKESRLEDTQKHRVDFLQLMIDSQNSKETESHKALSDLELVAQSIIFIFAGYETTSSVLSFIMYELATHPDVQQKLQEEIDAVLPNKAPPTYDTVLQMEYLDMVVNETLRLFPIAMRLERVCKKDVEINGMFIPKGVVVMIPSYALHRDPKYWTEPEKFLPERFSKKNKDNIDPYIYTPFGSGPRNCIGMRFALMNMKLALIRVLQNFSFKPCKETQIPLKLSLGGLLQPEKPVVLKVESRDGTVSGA

CYP2C9 [7] = target: T3, CYP2C9
CYP2C19 = CYP2C19 (Homo sapiens, UniProt P33261); test: Fluorometric CYP inhibition assay; type: biochemical; conditions: for Ki: pathway CYP2C19
Chain of CYP2C19 (P33261 whole entry): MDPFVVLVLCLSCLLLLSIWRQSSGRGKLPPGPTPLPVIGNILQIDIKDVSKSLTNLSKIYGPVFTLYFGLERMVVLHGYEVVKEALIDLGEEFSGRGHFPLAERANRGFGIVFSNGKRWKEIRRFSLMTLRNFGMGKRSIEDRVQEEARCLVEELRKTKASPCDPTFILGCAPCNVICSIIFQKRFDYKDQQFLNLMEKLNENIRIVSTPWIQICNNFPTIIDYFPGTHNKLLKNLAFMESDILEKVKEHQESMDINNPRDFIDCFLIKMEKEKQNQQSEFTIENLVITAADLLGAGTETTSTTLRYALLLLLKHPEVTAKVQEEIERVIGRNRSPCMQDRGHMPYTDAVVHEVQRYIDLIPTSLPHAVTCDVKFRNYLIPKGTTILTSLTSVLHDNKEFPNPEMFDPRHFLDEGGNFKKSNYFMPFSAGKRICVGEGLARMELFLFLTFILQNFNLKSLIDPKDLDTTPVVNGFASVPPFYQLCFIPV

[8] = cited from earlier work
[9] = Dissociation constant (Ki), pathway CYP2D6
[10] = Unbound dissociation constant (Ki,u), pathway CYP2D6, Ki * fu,inc
[11] = Unbound dissociation constant (Ki,u), Ki * fu,inc

Structure (SMILES) | inhibition at 3 min, 100 μM (OATP1B2) [%] | Risk2 (myopathy risk for drug 2) [1] | Maximal hepatic inlet concentration ([I]inlet,max) [2] [µM] | myotube death (rat L6 myotubes) [%] | Inhibitor concentration ([I]) [2] [µM] | Peak plasma concentration (Cmax) [3] | other results
Cc1nnc2n1-c1ccc(Cl)cc1C(c1ccccc1)=NC2 [Alprazolam] | 54.5 ± 0.3 | 0.029 | 0.981 | – | – | – | IC50 (OATP1B2): 99.5 µM; Predicted R value (OATP1B2): 1.01
Clc1ccc2c(c1)CCc1cccnc1C2=C1CCNCC1 [Desloratadine] | – | – | – | 73.3 ± 1.1 | – | – | –
CCOC(=O)N1CCC(=C2c3ccc(Cl)cc3CCc3cccnc32)CC1 [Loratadine] | – | – | – | – | 0.011 | – | Risk1 (myopathy risk for drug 1) ([1]; drug 1 only): 0.022 and 0.020
COc1ccc2[nH]c([S+]([O-])Cc3ncc(C)c(OC)c3C)nc2c1 (stereo not drawn) [Omeprazole] | 60.1 ± 4.8 | 0.059 | 19.586 | – | – | – | IC50 (OATP1B2): 84.3 µM; Predicted R value (OATP1B2): 1.23
CC(CN1c2ccccc2Sc2ccccc21)N(C)C (stereo not drawn) [Promethazine] | 17.7 ± 7.7 | – | – | – | 0.068 | 19.3 (36) ng/ml | Ki (CYP2D6 [4]; Dissociation constant (Ki)): 0.25 µM; Ki (CYP2D6 [4]; Unbound dissociation constant (Ki,u)): 0.22 µM
CCCN(CCC)CCc1cccc2c1CC(=O)N2 [Ropinirole] | 23.7 ± 2.7 | 0.018 | – | – | 0.103 | 26.9 (37) ng/ml | Ki (CYP2D6 [4]; [9]): 0.85 µM; Ki (CYP2D6 [4]; [10]): 0.71 µM
CCC(C)(C)C(=O)O[C@H]1C[C@@H](C)C=C2C=C[C@H](C)[C@H](CC[C@@H](O)C[C@@H](O)CC(=O)O)[C@H]21 [Simvastatin acid] | – | – | 12.274 | 33.0 ± 2.1 | – | – | –
CCC(C)(C)C(=O)O[C@H]1C[C@@H](C)C=C2C=C[C@H](C)[C@H](CC[C@@H]3C[C@@H](O)CC(=O)O3)[C@H]21 [Simvastatin] | – | 0.033 | – | 73.7 ± 2.6 | – | – | –
[H]/N=C(/NCCCCC)N/N=C/c1c[nH]c2ccc(OC)cc12 [Tegaserod] | 24.6 ± 15.3 | 0.020 | – | 97.9 ± 0.4 | 0.009 | 2.7 (39) ng/ml | Predicted R-values (CYP2D6 [5]): 1.02; Ki (CYP2C9 [6]; Dissociation constant (Ki)): 11.4 µM; Ki (CYP2C9 [6]; [11]): 10.5 µM; Predicted R-values (CYP3A4): 1.17; Predicted R-values (CYP2C9 [7]): 1.00; Ki (CYP2D6 [4]; [9]): 0.51 µM; Ki (CYP2D6 [4]; [10]): 0.47 µM; Predicted R-values (CYP2C19): 1.00; Ki (CYP2C19; Dissociation constant (Ki)): 9.2 µM; Ki (CYP2C19; [11]): 8.48 µM
COCc1c(C(C)C)nc(C(C)C)c(/C=C/[C@@H](O)C[C@@H](O)CC(=O)O)c1-c1ccc(F)cc1 [cerivastatin] | – | – | – | – | – | – | risk of rhabdomyolysis relative to other statins [8]: 10 fold; risk of rhabdomyolysis relative to other statins ([8]; with concurrent use of gemfibrozil): 50 fold
